From US20210052537A1, “COLITIS AMELIORATING AGENT” (ASTA PHARMACEUTICALS, CO., LTD., priority 2018, published 2021)
Where “and” joins values, the source holds several entries; their conditions need not be identical. Equal entries are not always repeated.

Columns and labels:
Oxa-induced colitis = assay: Oxazolone (Oxa)-induced colitis mouse model; type: in vivo; details: for Colon length compared with Vehicle group / Colon wet weight compared with Vehicle group: Group Nos. 3 to 6 of Table 7, in words; for Colon length / Colon weight (wet weight per length): 6 days, day 7, mean ± SD
Description: In this Example, mouse models to which oxazolone (4-ethoxymethylene-2-phenyl-2-oxazolin-5-on, hereinafter, Oxa) is used will be described as colitis models. When Oxa was first applied to skin, subsequently administered enterally after a certain period of time, an experimental ulcerative colitis model similar to human ulcerative colitis in terms of not only symptoms such as suppression of body weight increase, blood in stools, and anemia and formation of colon erosion but also immune cells was built (Non-Patent Literature 4). A suppression effect of Compound X on colitis in such a model as the test model showing pathological conditions more similar to human ulcerative colitis was examined. For the examination items, the length and weight of the colon were examined as changes in colon properties are widely known to occur also in this model.
For treatment, Balb/c, male mice were purchased from CHARLES RIVER LABORATORIES JAPAN, INC. in accordance with previous literature (Non-Patent Literature 5) and 8-week old mice with no abnormal general conditions during quarantine and acclimation period were used for the experiment. After acclimation, the animals were divided in such a way as to be 1 mouse per cage. Oxa used in the experiment was purchased from Sigma.
Fur at back of the neck was shaved in an area of 1.5×1.5 cm under anesthesia, and 150 μL (a 100% ethanol solution) of 3% (wt/vol) Oxa was added using a pipette and applied between the shoulders to sensitize (Day 1). The mice were kept under such a typical breeding environment, fasted for 16 hours from Day 7 (water supply was continued), and subsequently on Day 8 100 μL of a solution of 1% (wt/vol) Oxa in 50% ethanol was transanally administered into the rectum (3.5 cm from the anus) using a catheter under anesthesia. Hereinafter, the above treatment is described as Oxa treatment. After treatment, typical feeding breeding was carried out.
Starting on the day following intrarectal administration of Oxa, test substances were orally administered (once daily, for 6 days). 5-Aminosalicylic acid (hereinafter 5-ASA, Tokyo Chemical Industry, Co., Ltd.) and prednisolone (hereinafter, PSL, Sigma), which are anti-inflammatory agents used for treating ulcerative colitis, were used as positive controls for the test. After group division, each of the test substances of Table 6 was suspended in a solution of 0.5% sodium carboxymethyl cellulose (hereinafter, CMC, Nacalai Tesque Inc.) in such a way as to be each treatment of Table 6 and orally administered once daily. […] These control groups, Groups 1 and 2, were orally administered, as the test substance, with the 0.5% CMC solution which was used as the medium.
The test started with 6 mice in Group No. 1 and 9 mice each in Group Nos. 2 to 6. After the treatment started, death of animals in Group Nos. 2 to 6 due to the cause considered enteritis from Oxa treatment was observed and thus 6 mice in Group Nos. 1 and 3, and 5 mice in Group Nos. 2 and 6, and 7 mice in Group Nos. 4 and 5 were finally used for analysis.
It is generally acknowledged as a known fact that Oxa treatment causes colon tissue changes such as the length of colon is shortened while the weight increases. For evaluating the therapeutic effect of Compound X, the length and weight of the colon were measured. The mice were euthanized under anesthesia on day 7 of Oxa treatment and dissected to remove the colon. The removed colon was quickly measured for a length in a relaxed state. Subsequently, feces in the intestinal tract were removed and sufficiently washed with phosphate buffered saline (Wako Pure Chemical Industries, Ltd.) and measured for a wet weight.

DSS-induced colitis = DSS-induced colitis mouse model (experimental ulcerative colitis); type: in vivo; details: for Fecal scoring average value: score 0-3
Description: In this Example, mouse models to which dextran sulfate sodium salt (DSS) is used will be described as colitis models. When DSS is administered by being mixed in drinking water of the mouse, an experimental ulcerative colitis model similar to human ulcerative colitis in terms of symptoms such as suppression of body weight increase, blood in stools, and anemia and formation of colon erosion and further lacking intestinal lesion was build (Non-Patent Literature 3). A suppression effect of Compound X on colitis in such a model as the representative colitis model was examined. For the evaluation items, recovery from diarrhea and body weight loss by colitis, and the length and weight of the colon were examined as changes in colon properties, which are widely known to occur by DSS-induced colitis.
For treatment, C57BL/6J, male mice were purchased from CHARLES RIVER LABORATORIES JAPAN, INC. in accordance with previous literature (Non-Patent Literature 2) and 5-week old mice with no abnormal general conditions during quarantine and acclimation period were used for the experiment. After acclimation, the animals were divided in such a way as to be 1 mouse per cage. DSS used in the experiment having a molecular weight of from 36,000 to 50,000 Da was purchased from MP Bio Japan. DSS was added to tap water in such a way as to be 3% and suspended for causing colitis. The suspension was prepared once every 3 days and freely provided to each of the mice as water supply. A solution from which DSS was removed was provided as water supply to a non-pathological control group.
After group division, each of the test substances of Table 1 was suspended in a solution of 0.5% sodium carboxymethyl cellulose (hereinafter, CMC, Nacalai Tesque Inc.) in such a way as to be each treatment of Table 1 and orally administered once daily. […] These control groups, Groups 1 and 2, were orally administered, as the test substance, with the 0.5% CMC solution used as the medium.
Drinking water after the group division was typical water for drinking.
The test started with 6 mice in Group No. 1 and 10 mice each in Group Nos. 2 to 6.
Body weights were measured on the DSS administration starting day (day −5), DSS administration last day (day 0), on day 3, day 5, day 8, and day 10 of test substance administration.
The therapeutic effect was evaluated by observing changes in blood in stools caused by enteritis as the body weight recovery alone can be considered that the body weight increase might have been promoted simply by the growth. Mice feces were observed on the DSS administration starting day (day-5), DSS administration last day (day 0), on day 3, day 5, day 8, and day 10 of test substance administration and scored in accordance with the criteria of Table 2.
For evaluating the therapeutic effect of Compound X, the length and weight of the colon were measured. The mice were euthanized under anesthesia on day 10 of test substance administration and dissected to remove the colon. The removed colon was quickly measured for a length in a relaxed state. Subsequently, feces in the intestinal tract were removed and sufficiently washed with phosphate buffered saline (Wako Pure Chemical Industries, Ltd.) and measured for a wet weight.

[1] = Oxa treatment + 50 mg/kg/day oral, 50 mg/kg/day
[2] = DSS + 50 mg/kg/day oral, day 3, mean ± SD
[3] = DSS + 50 mg/kg/day oral, day 5, mean ± SD
[4] = Oxa treatment + 5 mg/kg/day oral, 5 mg/kg/day

SMILES: Nc1ccc(O)c(C(=O)O)c1 [Compound 5-ASA, 5-Aminosalicylic acid, reference compound]
- Colon length compared with Vehicle group (Oxa-induced colitis): longer length of the colon than Vehicle group
- Colon wet weight compared with Vehicle group (Oxa-induced colitis): suppressed weight increases compared with Vehicle group
- Colon length (Oxa-induced colitis; [1]): 7.41 cm and 7.41 ± 0.37 cm
- Colon weight (wet weight per length) (Oxa-induced colitis; [1]): 4.12 mg/mm and 4.12 ± 0.56 mg/mm
- Body weight recovery compared with the DSS administration only (DSS-induced colitis; 50 mg/kg/day oral, in words): significant body weight recovery
- Time-dependent changes in blood feces score versus DSS administration group (DSS-induced colitis; 50 mg/kg/day oral, in words): did not have a difference
- Fecal scoring average value (DSS-induced colitis; DSS + 50 mg/kg/day oral, day 0 (DSS last day), mean ± SD): 1.0 ± 0.0
- Body weight (DSS-induced colitis; [2]): 15.5 ± 1.0 g
- Fecal scoring average value (DSS-induced colitis; [2]): 1.5 ± 0.5
- Body weight (DSS-induced colitis; [3]): 16.4 ± 1.7 g
- Fecal scoring average value (DSS-induced colitis; [3]): 1.8 ± 1.0
- Fecal scoring average value (DSS-induced colitis; DSS + 50 mg/kg/day oral, day 8, mean ± SD): 0.0 ± 0.0
- Colon length (DSS-induced colitis; DSS + 50 mg/kg/day oral, day 10, mean ± SD, 50 mg/kg/day): 6.54 cm and 6.54 ± 0.29 cm
- Fecal scoring average value (DSS-induced colitis; DSS + 50 mg/kg/day oral, day 10, mean ± SD): 0.0 ± 0.0
- Fecal scoring average value (DSS-induced colitis; DSS + 50 mg/kg/day oral, day −5 (before test substance), mean ± SD): 0.0 ± 0.0
- Colon length compared with DSS group (DSS-induced colitis; Group Nos. 3 to 5 (1, 10, 100 mg/kg/day) and Group No. 6 (50 mg/kg/day), in words): longer length of the colon than DSS group
- Colon wet weight compared with DSS group (DSS-induced colitis; all treated groups of Table 5, in words): suppressed weight increases compared with DSS group

SMILES: C[C@]12C=CC(=O)C=C1CC[C@@H]1[C@@H]2[C@@H](O)C[C@@]2(C)[C@H]1CC[C@]2(O)C(=O)CO [PSL, prednisolone]
- Colon length compared with Vehicle group (Oxa-induced colitis): longer length of the colon than Vehicle group
- Colon wet weight compared with Vehicle group (Oxa-induced colitis): suppressed weight increases compared with Vehicle group
- Colon length (Oxa-induced colitis; [4]): 8.20 cm and 8.20 ± 0.52 cm
- Colon weight (wet weight per length) (Oxa-induced colitis; [4]): 3.37 mg/mm and 3.37 ± 0.36 mg/mm
